Patent US12233070B2, “Methods for treating benzodiazepine misuse/use disorder” (University of M[…] Center, priority 2020, dated 2025)
“Also recorded” adds a separate entry of the source. Marks after values point to notes of the source that are not given here.

Tests used:
[1] = design: key to Pharmacokinetics: “poor” - low bioavailability and/or short half-life; “good” - potent with long half-life; settings: in vivo; cited from earlier work
[2] = target: α2 subunit-containing GABAA receptors (Homo sapiens, UniProt P18507+P47869); design: key: act as partial positive modulators for particular subtype combinations; none: zero efficacy (i.e., antagonism) at other subtypes; settings: cited from earlier work
α2 subunit-containing GABAA receptors, sequence (P47869 29-451): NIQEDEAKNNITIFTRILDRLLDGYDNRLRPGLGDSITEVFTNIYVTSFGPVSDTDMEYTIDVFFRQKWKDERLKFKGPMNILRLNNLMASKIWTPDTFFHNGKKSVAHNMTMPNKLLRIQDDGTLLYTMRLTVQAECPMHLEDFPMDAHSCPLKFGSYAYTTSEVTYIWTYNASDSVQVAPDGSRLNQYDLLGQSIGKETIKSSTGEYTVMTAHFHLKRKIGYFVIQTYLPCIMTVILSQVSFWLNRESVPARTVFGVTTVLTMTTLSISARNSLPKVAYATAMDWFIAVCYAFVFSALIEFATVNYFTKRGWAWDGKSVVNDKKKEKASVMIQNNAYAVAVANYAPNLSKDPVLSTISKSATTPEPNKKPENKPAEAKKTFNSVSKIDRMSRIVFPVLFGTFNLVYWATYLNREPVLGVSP
α2 subunit-containing GABAA receptors, sequence (P18507 40-475): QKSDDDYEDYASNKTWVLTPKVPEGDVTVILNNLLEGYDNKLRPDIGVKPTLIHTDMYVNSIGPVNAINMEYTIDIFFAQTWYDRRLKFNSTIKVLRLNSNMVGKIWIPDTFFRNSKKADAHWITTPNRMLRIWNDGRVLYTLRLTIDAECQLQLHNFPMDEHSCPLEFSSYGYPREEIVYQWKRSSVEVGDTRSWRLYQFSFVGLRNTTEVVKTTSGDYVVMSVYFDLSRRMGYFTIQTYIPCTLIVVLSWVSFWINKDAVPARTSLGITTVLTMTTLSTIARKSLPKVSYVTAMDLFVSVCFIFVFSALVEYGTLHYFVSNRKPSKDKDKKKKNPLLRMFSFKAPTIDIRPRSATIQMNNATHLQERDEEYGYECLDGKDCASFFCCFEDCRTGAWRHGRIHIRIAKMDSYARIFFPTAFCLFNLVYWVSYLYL
α2 subunit-containing GABAA receptors, sequence (P28472 26-473 partner): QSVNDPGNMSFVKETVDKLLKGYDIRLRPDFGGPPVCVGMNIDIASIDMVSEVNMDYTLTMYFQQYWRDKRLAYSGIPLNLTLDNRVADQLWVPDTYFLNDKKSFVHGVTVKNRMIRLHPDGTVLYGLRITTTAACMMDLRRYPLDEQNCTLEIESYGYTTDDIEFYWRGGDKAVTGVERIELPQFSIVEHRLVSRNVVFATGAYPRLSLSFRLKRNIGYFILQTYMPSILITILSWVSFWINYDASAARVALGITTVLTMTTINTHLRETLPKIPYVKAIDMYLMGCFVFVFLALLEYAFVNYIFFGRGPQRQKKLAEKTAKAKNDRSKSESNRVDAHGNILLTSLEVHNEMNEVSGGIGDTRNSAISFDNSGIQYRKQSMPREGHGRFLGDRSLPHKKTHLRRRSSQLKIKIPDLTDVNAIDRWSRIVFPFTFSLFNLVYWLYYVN

[3] = target: α3 subunit-containing GABAA receptors (Homo sapiens, UniProt P18507+P34903); design: key: act as partial positive modulators for particular subtype combinations; none: zero efficacy (i.e., antagonism) at other subtypes; settings: cited from earlier work
α3 subunit-containing GABAA receptors, sequence (P34903 29-492): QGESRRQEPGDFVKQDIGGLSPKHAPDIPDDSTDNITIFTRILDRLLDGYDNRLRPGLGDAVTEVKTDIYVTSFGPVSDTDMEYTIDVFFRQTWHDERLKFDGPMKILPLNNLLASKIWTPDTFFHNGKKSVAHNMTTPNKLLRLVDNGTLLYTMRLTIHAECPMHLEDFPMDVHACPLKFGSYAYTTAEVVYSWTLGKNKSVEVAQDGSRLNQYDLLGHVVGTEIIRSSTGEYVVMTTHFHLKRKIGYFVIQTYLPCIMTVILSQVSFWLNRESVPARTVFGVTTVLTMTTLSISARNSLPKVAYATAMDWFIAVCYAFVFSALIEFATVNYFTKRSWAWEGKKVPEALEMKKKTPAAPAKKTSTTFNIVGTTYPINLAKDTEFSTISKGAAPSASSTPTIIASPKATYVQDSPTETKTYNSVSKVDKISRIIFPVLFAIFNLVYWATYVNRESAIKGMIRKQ
α3 subunit-containing GABAA receptors, sequence (P18507 40-475): as the sequence (P18507 40-475) above
α3 subunit-containing GABAA receptors, sequence (P28472 26-473 partner): as the sequence (P28472 26-473 partner) above

[4] = rhesus monkey; cited from earlier work
[5] = target: α5 subunit-containing GABAA receptors (Homo sapiens, UniProt P18507+P31644); design: key to Subtype α5: act as partial positive modulators for particular subtype combinations; none: zero efficacy (i.e., antagonism) at other subtypes; settings: cited from earlier work
α5 subunit-containing GABAA receptors, sequence (P31644 32-462): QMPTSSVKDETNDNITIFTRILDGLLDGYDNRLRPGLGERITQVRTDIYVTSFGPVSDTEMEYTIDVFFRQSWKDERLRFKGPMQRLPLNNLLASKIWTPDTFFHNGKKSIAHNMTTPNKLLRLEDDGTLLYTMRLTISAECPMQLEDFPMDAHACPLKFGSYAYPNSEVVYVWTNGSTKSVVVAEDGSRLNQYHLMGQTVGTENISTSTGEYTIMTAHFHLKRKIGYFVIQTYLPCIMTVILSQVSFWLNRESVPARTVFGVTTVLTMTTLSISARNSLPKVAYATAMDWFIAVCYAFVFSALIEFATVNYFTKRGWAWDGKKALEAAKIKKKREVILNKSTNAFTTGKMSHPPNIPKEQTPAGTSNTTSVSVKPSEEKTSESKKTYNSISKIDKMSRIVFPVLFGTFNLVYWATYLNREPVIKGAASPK
α5 subunit-containing GABAA receptors, sequence (P18507 40-475): as the sequence (P18507 40-475) above
α5 subunit-containing GABAA receptors, sequence (P28472 26-473 partner): as the sequence (P28472 26-473 partner) above

[6] = target: α1 subunit-containing GABAA receptors (Homo sapiens, UniProt P14867+P18507); design: key to Subtype α1: act as partial positive modulators for particular subtype combinations; none: zero efficacy (i.e., antagonism) at other subtypes; settings: cited from earlier work
α1 subunit-containing GABAA receptors, sequence (P14867 28-456): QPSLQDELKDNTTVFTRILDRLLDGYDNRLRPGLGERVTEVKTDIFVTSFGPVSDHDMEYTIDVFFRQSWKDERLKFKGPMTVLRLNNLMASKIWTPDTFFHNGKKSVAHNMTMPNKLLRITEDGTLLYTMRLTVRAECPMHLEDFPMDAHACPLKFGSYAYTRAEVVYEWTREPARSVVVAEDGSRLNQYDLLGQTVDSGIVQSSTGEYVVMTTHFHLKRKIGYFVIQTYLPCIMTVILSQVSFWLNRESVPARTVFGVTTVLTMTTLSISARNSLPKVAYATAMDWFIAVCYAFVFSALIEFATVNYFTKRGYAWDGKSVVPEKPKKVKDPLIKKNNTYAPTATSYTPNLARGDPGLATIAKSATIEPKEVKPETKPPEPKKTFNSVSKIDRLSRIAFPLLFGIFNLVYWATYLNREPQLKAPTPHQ
α1 subunit-containing GABAA receptors, sequence (P18507 40-475): as the sequence (P18507 40-475) above
α1 subunit-containing GABAA receptors, sequence (P28472 26-473 partner): as the sequence (P28472 26-473 partner) above

[7] = system: rhesus monkeys; assay: Observation/sedation, focal animal behavioral scoring; assay type: in vivo, rhesus monkey; settings: at least one dose significantly different from vehicle; out of 22 behaviors; i.v.; N = 4 monkeys
Procedure: For the data shown here, the behavior of each monkey (n=4 total) was scored using a focal animal approach as described previously (Duke et al. 2018, J Pharmacol Exp Ther 366: 145-57). Briefly, a trained observer blind to the drug treatments observed a specific monkey for 5 min and recorded each instance that a particular behavior occurred during 15-s intervals. Scores for each behavior were calculated as the number of 15-s bins in which the behavior occurred (e.g., a maximum score would be 20). For sedation measures, structured exposure to stimuli were included in the observation sessions (Duke et al., 2018). […] Specifically, the observer presented three stimuli: 1) walked at a normal pace towards the cage, 2) spoke the animal's name, and 3) moved the lock used to secure the door of the cage. […] If the monkey attended more slowly (i.e., >3 s following stimuli), the observer scored “moderate sedation”.
The assessment of sedation was initiated during the 5-min sampling period if the animal presented, at any time during that period, with its eyes closed for longer than 3 s. The result of this assessment was recorded for each remaining 15-sec interval of the 60-sec epoch unless eyes opened. Afterwards, eyes closing again initiated the assessment. If eyes remained closed, then the assessment was repeated at the beginning of the next 60-sec epoch 15-sec interval. Therefore, the maximum score for sedation during a 5-min period was 20 (four possible scores for 4×15-sec intervals per min, 5 min total; i.e., 4 possible scores×5 min=20). The order in which animals were observed and the observer performing the scoring each day was randomized. Four observers participated in the scoring throughout the duration of the study; each observer underwent a minimum of 20 hours of training and met an inter-observer reliability criterion of ≥90% agreement with all other observers.
The five-min sampling periods were repeated at multiple times following i.v. injection of TPA023B or vehicle (minutes post injection): 5, 10, 20, 40, 80, 160, 320. Scores were cumulated across the time periods, resulting in a maximum possible cumulative score of 140. TPA023B was compared with alprazolam, and the results have been published by Duke et al. (2018).

[8] = system: rhesus monkeys; assay: Conflict model of anxiolysis (mult FR, FR+PUN); assay type: in vivo, rhesus monkey; settings: i.v.; for Non-Suppressed, Mean responses/s (SEM) / Suppressed, Mean responses/s (SEM): N = 4 monkeys
Excerpt: The conflict procedure methodology includes a two-component multiple fixed-ratio, fixed-ratio plus punishment schedule (mult FR, FR+PUN). An important feature of this model is that it is highly predictive of clinically active doses in human subjects (Rowlett et al. 2006, Psychopharmacology 184: 201-11). One component of this schedule was associated with a distinctive visual stimulus (e.g., red light) and the other component was associated with a different stimulus (e.g., green light). In each component, completion of 10 responses (FR 10) produced a food pellet followed by a brief (10 sec) timeout period. The component ended following delivery of 5 food pellets or 5 min, whichever occurred first. A 10-min timeout period occurred before each of four cycles with two components (1 red, 1 green) per cycle. When performance in both components of the multiple schedule was stable, responding in one component was suppressed by superimposing a FR schedule of response-produced electric shock. Under the superimposed schedule, every nth response (n=15-25, adjusted for each monkey depending on individual performance) produced shock. Once responding was stable (at least three sessions in which suppressed responding was less than 50% of non-suppressed responding, with no upward or downward trend in response rates in either component), investigational compounds were administered i.v. during the extended timeout periods using a cumulative dosing technique. This technique allowed determination of a four-point dose-response function in a single session.
Table 2 summarizes data for TPA023B in the conflict procedure (n=4 monkeys, 2 females and 2 males), with alprazolam as a positive control. Average responses when vehicle was administered was 2.2 in the non-suppressed component, decreased by ˜98% by shock presentation in the suppressed component (mean=0.05 responses). For non-suppressed responding, TPA023B had no effects on mean rates of responding or percent of control over a 100-fold dose range (0.01 to 1.0 mg/kg, i.v.). […] This effect was similar to that observed with 0.03 mg/kg, i.v., of alprazolam. A striking characteristic of TPA023B in this procedure is the lack of attenuation of rates of responding at higher doses.

[9] = system: Sprague-Dawley rats; assay: Pulmonary ventilation, whole body plethysmography; assay type: in vivo, rat; settings: 3.0 mg/kg, i.p.; N=8 rats
Procedure: We first assessed the effects of TPA023B, in comparison with alprazolam, using whole body plethysmography (WBP; DSI systems). For these studies, adult male Sprague-Dawley rats (n=8) were habituated to the chambers for 30 min. The chamber was then filled with 21% oxygen, sealed, and pressure fluctuation measured for 1 min. Next, the chamber was opened and the rats were injected with alprazolam or TPA023B, i.p., and placed into the sealed chamber for a 15 min pretreatment time. The chamber was again filled with 21% oxygen, and for 1 min, fluctuating pressure amounts were recorded to obtain tidal volume (lung capacity), breaths/minute, and minute volume (lung capacity per unit time).

[10] = system: rats; assay: Blockade of diazepam suppression of responding (30 min pretreatment); assay type: in vivo, rat; settings: ligand 3.0 mg/kg; diazepam 30 min pretreatment; FIG. 12A; N=5
Procedure: This profile is very similar to that of TPA023B despite the structural differences. […] For both compounds, we chose 3.0 mg/kg, i.p., in rats based on published literature or pilot studies in our laboratories.
FIGS. 12A and 12B illustrate the results of acute dependency testing using these compounds.

[11] = system: rhesus monkeys; assay: Midazolam self-administration (PR) after TPA023B pretreatment; assay type: in vivo, rhesus monkey; settings: midazolam alone, PR procedure
Procedure: To test this, we have trained monkeys to self-administer the short-acting conventional benzodiazepine midazolam (0.056 mg/kg/injection, i.v.) in the PR procedure, as described above. During test sessions, we initially kept the training dose of midazolam constant, and administered i.v. pretreatments of TPA023B (0.003, 0.01, 0.03, 0.1, 0.3 mg/kg, of vehicle) immediately prior to the beginning of the session. A key consideration for any pharmacotherapy, as well as interpretation of blockade of reinforcing effects generally, is the extent to which the blockade is specific to the drug target and not a generalized suppression of behavior, e.g., due to sedative-motor effects inhibiting the ability of the monkey to press the lever. Another possible confounding factor that would potentially result in blockade of drug taking is general sickness or perceptual alterations. In particular, appetite suppression would represent an undesirable side effect in a benzodiazepine addiction pharmacotherapy.
To further evaluate the extent to which attenuation of responding was due to pharmacological antagonism and to evaluate an exemplary range of effective doses, we evaluated single doses of TPA023B administered prior to sessions in which differing doses of midazolam were tested.

[12] = system: Sprague-Dawley rats; assay: Food-maintained responding (FR 10), ligand alone; settings: for effect on rates of responding: diazepam 3.0 mg/kg
[13] = system: Sprague-Dawley rats; assay: Precipitated withdrawal/acute dependence: responding 60 min after diazepam bolus; assay type: in vivo, rat
Procedure: Acute dependence can occur after single exposures to the benzodiazepine chlordiazepoxide, but not to an α2/3GABAA selective ligand (Fischer et al. 2013, Psychopharmacology 227: 347-54). Here, the extent to which TPA023B can precipitate withdrawal in rats following a single, large bolus dose of diazepam was studied. […] Once rates of responding were stable, doses of diazepam, the non-selective benzodiazepine antagonist flumazenil, and TPA023B were administered prior to the session.

Molecule: Cn1ncnc1COc1nn2c(-c3ccccc3)nnc2cc1C1CCC1 [MRK-067]
- PK [1]: poor

Molecule: N#Cc1cc(F)ccc1-c1cc(-c2cnc3nc(C(F)(F)F)ccn23)ccc1F [MRK-898]
- Subtype α2 [2]: partial
- Subtype α3 [3]: partial
- Pharmacokinetics [1]: good
- bioavailability [4]: 49%
- half-life [4]: 13 h
- Subtype α5 [5]: none
- efficacy at α5GABAA subtype [5]: antagonist
- Subtype α1 [6]: none
- efficacy at α1GABAA subtype [6]: antagonist

Molecule: Cc1nnc2n1-c1ccc(Cl)cc1C(c1ccccc1)=NC2 [Alprazolam, alprazolam]
- Significant behavioral effects: Decrease [7]: Exploration; also recorded: Passive Visual, Tactile/Oral
- Significant behavioral effects: Increase [7]: Sedation, Deep Sedation,; also recorded: Observable Ataxia; also recorded: Rest/Sleep Posture, Moderate
- Non-Suppressed, Mean responses/s (SEM) ([8]; 0.03 mg/kg): 1.8 (0.31) responses/s
- Suppressed, Mean responses/s (SEM) ([8]; 0.03 mg/kg): 1.9 (0.10)* responses/s
- effect on non-suppressed responding ([8]; 0.3 mg/kg): markedly attenuated
- Non-Suppressed, Mean responses/s (SEM) ([8]; 0.3 mg/kg): 0.18 (0.09)* responses/s
- Suppressed, Mean responses/s (SEM) ([8]; 0.3 mg/kg): 0.10 (0.10) responses/s
- breathing frequency [9]: significantly reduced
- minute volume [9]: significantly reduced

Molecule: Cn1ncnc1COc1nn2c(-c3ccccc3F)nnc2cc1C1CCC1 [MRK-696]
- Subtype α2 [2]: partial
- Subtype α3 [3]: partial
- Pharmacokinetics [1]: poor
- Subtype α5 [5]: partial
- Subtype α1 [6]: partial

Molecule: Cn1ncnc1COc1nn2c(-c3cc(F)ccc3F)nnc2cc1C(C)(C)C [L-838,417]
- Subtype α2 [2]: partial
- Subtype α3 [3]: partial
- PK [1]: Poor
- Pharmacokinetics [1]: poor
- ability of diazepam to suppress rates of responding [10]: blocked
- Subtype α5 [5]: partial
- Subtype α1 [6]: none
- efficacy at α1GABAA subtype [6]: antagonist; also recorded: no efficacy

Molecule: MRK-409
- Subtype α2 [2]: partial
- Subtype α3 [3]: partial
- Pharmacokinetics [1]: good
- Subtype α5 [5]: partial
- Subtype α1 [6]: partial

Molecule: Cc1ncc2n1-c1ccc(Cl)cc1C(c1ccccc1F)=NC2 [midazolam, reference compound]
- dose showing maximal self-administration [11]: 0.018 mg/kg/injection

Molecule: CN1C(=O)CN=C(c2ccccc2)c2cc(Cl)ccc21 [diazepam]
- mean rates of responding (percent of baseline control), ligand alone ([12]; N=8 rats, FIGS. 10A to 10C): significantly decreased
- effect on rates of responding ([12]; 30 min pre-treatment): most robust effects
- effect on rates of responding ([12]; 60 min pre-treatment): no effects

Molecule: CCOC(=O)c1ncn2c1CN(C)C(=O)c1cc(F)ccc1-2 [flumazenil, reference compound]
- rates of responding 60 min after 3.0 mg/kg diazepam (precipitated withdrawal) ([13]; all doses tested, vs ligand alone, FIGS. 11A and 11B): robustly suppressed responding
- rates of responding after 60-min pretreatment of diazepam (acute dependence) ([13]; ligand 3.0 mg/kg, FIG. 12B, N=5): significant decrease
- ability of diazepam to suppress rates of responding [10]: blocked
